Measured values: US11827628B2, “Compositions and methods for inhibition of the JAK pathway” (Rigel Pharmaceuticals, Inc., priority 2005, dated 2023)

system: IL-4 stimulated expression of CD23 in human Ramos B cells (JAK-1 and JAK-3); test: Assay for Ramos B-Cell Line Stimulated with IL-4 (CD23 upregulation, FACS); assay type: cell-based; details: Homo sapiens, Ramos, Ramos B cells stimulated with IL-4, CD23 expression by FACS; read-out: IC50, Example 41
Text: One means of assaying for such inhibition is detection of the effect of the 2,4-substituted pyrimidinediamine compounds on the upregulation of downstream gene products. In the Ramos/IL4 assay, B-cells are stimulated with the cytokine Interleukin-4 (IL-4) leading to the activation of the JAK/Stat pathway through phosphorylation of the JAK family kinases, JAK1 and JAK3, which in turn phosphorylate and activate the transcription factor Stat-6. […] To study the effect of inhibitors (e.g., the 2,4-substituted pyrimindinediamine compounds described herein) on the JAK1 and JAK3 kinases, human Ramos B cells are stimulated with human IL-4. Twenty to 24 hours post stimulation, cells are stained for upregulation of CD23 and analyzed using flow cytometry (FACS). […] An exemplary assay of this type is described in greater detail in Example 41
B-cells stimulated with cytokine Interleukin-4 (IL-4) activate the JAK/Stat pathway through phosphorylation of the JAK family kinases, JAK-1 and JAK-3, which in turn phosphorylate and activate the transcription factor Stat-6. […] To study the effect of inhibitors on the JAK family kinases, human Ramos B cells are stimulated with human IL-4.
The Ramos B-cell line was acquired from ATCC (ATCC Catalog No. CRL-1596). The cells were cultured in RPMI 1640 (Cellgro, MediaTech, Inc., Herndon, VA, Cat No. 10-040-CM) with 10% fetal bovine serum (FBS), heat inactivated (JRH Biosciences, Inc, Lenexa, Kansas, Cat No. 12106-500M) according to ATCC propagation protocol. Cells were maintained at a density of 3.5×10^5. The day before the experiment, Ramos B-cells were diluted to 3.5×10^5 cells/mL to ensure that they were in a logarithmic growth phase.
Cells were spun down and suspended in RPMI with 5% serum. 5×10^4 cells were used per point in a 96-well tissue culture plate. Cells were pre-incubated with compound or DMSO (Sigma-Aldrich, St. Louis, MO, Cat No. D2650) vehicle control for 1 hour in a 37° C. incubator. Cells were then stimulated with IL-4 (Peprotech Inc., Rocky Hill, NJ, Cat No. 200-04) for a final concentration of 50 units/mL for 20-24 hours. Cells were then spun down and stained with anti-CD23-PE(BD Pharmingen, San Diego, CA, Cat No. 555711) and analyzed by FACS. Detection was performed using a BD LSR I System Flow Cytometer, purchased from Becton Dickinson Biosciences of San Jose, California The IC50 calculated based on the results of this assay are provided in TABLE XII.

IC50 [nM] | Compound
205 | CNS(=O)(=O)c1ccc(Nc2ncc(F)c(Nc3cccc(O)c3)n2)cc1OC [VI-1, 5-Fluoro-N4-(3-hydroxyphenyl)-N2-[4-(N-methyl)aminosulfonyl-3-methoxyphenyl]-2,4-pyrimidinediamine]
6410 | NC(=O)c1c[nH]c2cc(Nc3nc(Nc4ccc(Cl)c(S(N)(=O)=O)c4)ncc3F)ccc12 [IX-10, N4-[3-(Aminocarbonyl)-1H-indol-6-yl]-N2-(3-aminosulfonyl-4-chlorophenyl)-5-fluoro-2,4-pyrimidinediamine]
161 | C#CCNS(=O)(=O)c1cccc(Nc2ncc(F)c(Nc3ccc(OCC#C)cc3)n2)c1 [VI-78, 5-Fluoro-N2-[3-(prop-2-ynylaminosulfonyl)phenyl]-N4-[4-(prop-2-ynyloxy)phenyl]-2,4-pyrimidinediamine]
1040 | NS(=O)(=O)c1ccc(Nc2ncc(F)c(Nc3ccc(C(=O)N4CCSCC4)cc3)n2)cc1 [IX-36, N2-(4-Aminosulfonylphenyl)-5-fluoro-N4-[4-(4-thiomorpholinyl)carbonylphenyl]-2,4-pyrimidinediamine]
890 | NS(=O)(=O)c1cc(Nc2ncc(F)c(Nc3ccc(Cl)c(S(N)(=O)=O)c3)n2)ccc1Cl [VI-115, N2,N4-Bis-(3-aminosulfonyl-4-chlorophenyl)-5-fluoro-2,4-pyrimidinediamine]
5800 | CCC(=O)NS(=O)(=O)c1cccc(Nc2ncc(F)c(Nc3ccc(CCOC(=O)N(C)C)cc3)n2)c1 [VI-64, N4-{4-[2-(Dimethylaminocarbonyloxy)ethyl]phenyl}-5-fluoro-N2-(3-propionylaminosulfonylphenyl)-2,4-pyrimidinediamine]
602 | CN1C(=O)C(C)(C)S(=O)(=O)c2ccc(Nc3nc(Nc4cccc(S(N)(=O)=O)c4)ncc3F)cc21 [VII-11, N2-(3-Aminosulphonylphenyl)-5-fluoro-N4-(2,2,4-trimethyl-1,1,3-trioxo-benzo[1,4]thiazin-6-yl)-2,4-pyrimidinediamine]

same assay, conditions: Homo sapiens, Ramos, Ramos B-cell line stimulated with IL-4; CD23 expression by FACS; read-out: IC50, Example 41

IC50 [nM] | Compound
142 | Cc1cc(Nc2nc(Nc3cccc(S(N)(=O)=O)c3)ncc2F)ccc1OCc1ccccn1 [Compound I-167, N2-(3-Aminosulfonylphenyl)-5-fluoro-N4-[(4-((pyridin-2-yl)methoxy)-3-methylphenyl)]-2,4-pyrimidinediamine]
532 | COc1cc(Nc2nc(Nc3ccc(C)c(S(N)(=O)=O)c3)ncc2F)cc(OCC#N)c1OC [Compound I-2, N2-(3-Aminosulphonyl-4-methylphenyl)-N4-(3-cyanomethoxy-4,5-dimethoxyphenyl)-5-fluoro-2,4-pyrimidinediamine]
2950 | Cc1ccc(Nc2ncc(F)c(Nc3ccc(OCC(N)=O)c(CO)c3)n2)cc1S(N)(=O)=O [Compound I-106, N4-(4-Aminocarbonylmethoxy-3-hydroxymethylphenyl)-N2-(3-aminosulfonyl-4-methylphenyl)-5-fluoro-2,4-pyrimidinediamine]
388 | CN(C)C(=O)COc1ccc(Nc2nc(Nc3ccc(Cl)c(S(N)(=O)=O)c3)ncc2F)cc1Cl [Compound I-140, N2-(3-Aminosulfonyl-4-chlorophenyl)-N4-(3-chloro-4-dimethylaminocarbonylmethoxyphenyl)-5-fluoro-2,4-pyrimidinediamine]
758 | Cc1ccc(Nc2ncc(F)c(Nc3ccc(OCC(=O)N4CCOCC4)cc3)n2)cc1S(N)(=O)=O [Compound I-212, N2-(3-Aminosulfonyl-4-methylphenyl)-5-fluoro-N4-[4-(2-morpholin-4-yl-2-oxo-ethoxy)phenyl]-2,4-pyrimidinediamine]

same assay, conditions: Ramos B cells stimulated with IL-4, CD23 expression by FACS; read-out: IC50, Example 41

IC50 [nM] | Compound
9580 | CC(=O)N1CCN(C(=O)c2ccc(Nc3nc(Nc4cccc(S(N)(=O)=O)c4)ncc3F)cc2)CC1 [IX-23, N4-[4-(1-Acetyl-4-piperizinyl)carbonylphenyl]-N2-(3-Aminosulfonylphenyl)-5-fluoro-2,4-pyrimidinediamine]
8620 | CCOC(=O)CN(c1ccc(OC)c(Cl)c1)c1nc(Nc2cccc(S(N)(=O)=O)c2)ncc1C(=O)OCC [VI-24, N2-(3-Aminosulfonylphenyl)-5-carboethoxy-N4-(N-carboethoxymethylene-N-3-chloro-4-methoxyphenyl)-2,4-pyrimidinediamine]
766 | COC(=O)CNS(=O)(=O)c1cccc(Nc2ncc(F)c(Nc3ccc(OC)c(Cl)c3)n2)c1 [VI-7, N4-(3-Chloro-4-methoxyphenyl)-5-fluoro-N2-[3-(N-methoxycarbonylmethylene)aminosulfonylphenyl]-2,4-pyrimidinediamine]
1280 | COc1ccc(Nc2ncc(F)c(Nc3ccc(CN4CCOCC4)cc3)n2)cc1S(N)(=O)=O [III-105, N2-(3-Aminosulfonyl-4-methyleneoxyphenyl)-5-fluoro-N4-(4-N-morpholinomethylenephenyl)-2,4-pyrimidinediamine]
2480 | COc1ccc(Nc2ncc(F)c(Nc3ccc(CN4CCS(=O)(=O)CC4)cc3)n2)cc1S(N)(=O)=O [III-112, N2-(3-Aminosulfonyl-4-methyloxyphenyl)-5-fluoro-N4-{4-[(1,1-dioxothiomorpholin-4-yl-)methyl]phenyl}-2,4-pyrimidinediamine]
1590 | Cc1cc(COc2ccc(Nc3nc(Nc4ccc5c(c4)S(=O)(=O)NC5=O)ncc3F)cc2)no1 [VIII-1, 5-Fluoro-N4-[4-(5-methylisoxazol-3-yl)methyleneoxyphenyl]-N2-(sacchrin-6-yl)-2,4-pyrimidinediamine]
367 | CNS(=O)(=O)c1cccc(Nc2nc(Nc3cccc(S(N)(=O)=O)c3)ncc2F)c1 [IV-11, N2-(3-Aminosulfonylhenyl)-5-fluoro-N4-[3-(N-methylaminosulfonyl)phenyl]-2,4-pyrimidinediamine]

same assay, conditions: Ramos B-cell line stimulated with IL-4; CD23 expression by FACS; read-out: IC50, Example 41

IC50 [nM] | Compound
726 | NS(=O)(=O)c1cccc(Nc2ncc(F)c(Nc3ccc(OCCN4CCOCC4)cc3)n2)c1 [Compound I-206]
2910 | CCN(CC)CCNS(=O)(=O)c1cccc(Nc2ncc(F)c(Nc3cccc(OCc4cccnc4)c3)n2)c1 [Compound I-187, N2-[3-(2-N,N-Diethylaminoethyl)aminosulfonylphenyl)-5-fluoro-N4-[3-(3-pyridinyl)methyleneoxyphenyl]-2,4-pyrimidinediamine]
1040 | Cc1ccc(Nc2ncc(F)c(Nc3ccc(N(C)C(=O)CC#N)cc3)n2)cc1S(N)(=O)=O [Compound I-87, N2-(3-Aminosulfonyl-4-methylphenyl)-N4-[4-(N-cyanoacetyl-N-methyl)aminophneyl]-5-fluoro-2,4-pyrimidinediamine]
916 | CN(C(=O)CC#N)c1ccc(Nc2nc(Nc3cccc(S(N)(=O)=O)c3)ncc2F)cc1 [Compound I-86, N2-(3-Aminosulfonylphenyl)-N4-[4-(N-cyanoacetyl-N-methyl)aminophneyl]-5-fluoro-2,4-pyrimidinediamine]
791 | COc1cc(Nc2nc(Nc3ccc(C)c(S(N)(=O)=O)c3)ncc2F)ccc1NC(=O)CC#N [Compound I-85, N2-(3-Aminosulfonyl-4-methylphenyl)-5-fluoroN4-[3-methoxy-4-(N-cyanoacetyl)aminophneyl]-2,4-pyrimidinediamine]
2030 | NC(=O)COc1cccc(Nc2nc(Nc3ccc(S(N)(=O)=O)cc3)ncc2F)c1 [Compound I-91, N4-(3-Aminocarbonylmethoxy)phenyl-N2-(4-aminosulfonyl)phenyl-5-fluoro-2,4-pyrimidinediamine]
397 | Cc1cc(CCC#N)ccc1Nc1nc(Nc2ccc(C)c(S(N)(=O)=O)c2)ncc1F [III-23, N2-(3-Aminosulfonyl-4-methylphenyl)-N4-(4-cyanoethylene-2-methylphenyl)-5-fluoro-2,4-pyrimidinediamine]
3760 | Cc1cc(COc2ccc(Nc3nc(Nc4ccc(C)c(S(=O)(=O)NC(=O)C(C)C)c4)ncc3F)cc2)no1 [Compound I-229, 5-Fluoro-N4-[4-(5-methylisoxazol-3-yl)methyleneoxyphenyl]-N2-(4-methyl-3-(2-methylpropionyl)aminosulfonylphenyl)-2,4-pyrimidinediamine]
498 | Cc1cc(COc2ccc(N(C)c3nc(Nc4ccc(C)c(S(N)(=O)=O)c4)ncc3F)cc2F)no1 [Compound I-226, N2-(3-Aminosulfonyl-4-methylphenyl)-5-fluoro-N4-[3-fluoro-4-(5-methylisoxazol-3-yl)methyleneoxyphenyl]-N4-methyl-2,4-pyrimidinediamine]
